Experimental findings from patent US12252491B2, “IL-17A inhibitors” (Eli Lilly and Company, priority 2019, dated 2025) are described below.

For orientation: IC50 means the midpoint of a concentration-inhibition curve.

The nature of data set [1]: Mouse oral bioavailability. Type of data set: in vivo. The settings on record: whole blood (dried blood spot), male mice, IV bolus 1 mg/kg vs oral 3 mg/kg, 8-hour AUC, read-out: % F (mouse). On the procedure: Oral bioavailability (% F) for compounds of the invention may be determined in mice by determination of an 8-hour blood plasma AUC (nM*hr) following intravenous and oral administration performed essentially as follows. Male mice (n=3) are administered compound via intravenous (IV) bolus (1 mg/kg) or orally (3 mg/kg). For intravenous administration, a vehicle of 20% w/v capsitol in NaPO4 buffer (25 mM) adjusted to pH 2 in a volume of 5 mL/kg is used. For oral administration, a vehicle of HEC/P80/AF/PW (probe sonicated to afford a homogeneous suspension) in a volume of 10 mL/kg is used. Blood is sampled by saphenous bleeding using K2 EDTA as anticoagulant. Approximately 20 μL of blood (or enough for 1 spot) is collected via a capillary tube and transferred to a card as a dry blood spot. Cards are allowed to dry for at least 2 hours before shipping for analysis. Blood concentration of compounds for each mouse is measured by liquid chromatography/tandem mass spectrometry at time points of 0.08 (IV only), 0.25, 0.5, 0.75, 2, 4, and 8 hours. Oral bioavailability (% F) is determined via the following equation: [% F=(AUC/Dose)PO/(AUC/Dose)IV].

Data set [2] has as its target binding of IL-17A to IL-17RA (Homo sapiens (Human), UniProt Q16552). Put plainly: IL-17A:IL-17RA AlphaLISA. In general terms: In Alpha technology, singlet oxygen from a donor bead excites a nearby acceptor bead.
Protocol: The ability of compounds to inhibit the binding of IL-17A to IL-17RA may be assessed with an AlphaLISA assay.
To assay the compounds of the present invention, 0.1 μL of a test compound stock is serially diluted in 100% DMSO using an Echo Acoustic Liquid Handler (LabCyte Sunnydale, Calif.) in 384 well proxiplates (Perkin Elmer). A 5 μL addition of IL-17RA-FLAG is added to the plate, followed by the addition of 5 μL Avi-tagged IL-17A-His to provide a final concentration of 2 nM of IL-17RA and IL-17A, respectively. The assay is carried out in 20 mM HEPES, 150 mM NaCl, 0.05% Tween-20, 0.1% Human Serum Albumin, pH 7 and 1% DMSO. The assay mixture is allowed to incubate at room temperature for 2 hours. After the 2 hour incubation, 10 μL of streptavidin donor beads (20 μg/ml final) and anti-FLAG acceptor beads (20 μg/ml final) are added to the plate. The plate is allowed to incubate for one hour at room temp, then is read on the Envision (Perkin Elmer). The relative IC50 values are determined using a four parameter fit as shown in equation 1. In this equation, bottom and top are defined as the plateaus of the curve, and H is the Hill Slope.
The target of data set [3] is human IL-17A (Homo sapiens (Human), UniProt Q16552).
Protocol: The ability of compounds to neutralize the activity of IL-17A may be assessed with a cell-based human IL-17A neutralization assay conducted essentially as follows. […] After 48 hours, CXCL1/GROα in the culture media is measured using a commercial ELISA kit (#DY275; R&D Systems). Medium alone treatments are included in every experiment to assess the basal levels of CXCL1/GROα. Percent inhibition is calculated using the following equation:

SMILES strings stand for the structures.

Chain of human IL-17A (Q16552 20-155): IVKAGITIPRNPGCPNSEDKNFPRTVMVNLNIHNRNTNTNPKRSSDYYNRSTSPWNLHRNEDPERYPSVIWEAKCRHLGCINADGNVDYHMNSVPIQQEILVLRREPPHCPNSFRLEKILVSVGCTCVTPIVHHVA
Chain of binding of IL-17A to IL-17RA (Q16552 other isoform, or with tags, fused parts or gaps): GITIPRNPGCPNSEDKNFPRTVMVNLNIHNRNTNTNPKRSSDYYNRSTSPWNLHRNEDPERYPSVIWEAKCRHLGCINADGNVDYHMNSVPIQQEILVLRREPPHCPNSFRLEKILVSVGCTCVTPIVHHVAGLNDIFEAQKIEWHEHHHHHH

As for `O=C(N[C@H](c1cn2ncc(CN3C[C@@H](C(F)(F)F)NC3=O)cc2n1)C1CCC(F)(F)CC1)c1conc1C1CC1` [Example 1, 3-Cyclopropyl-N—[(S)-(4,4-difluorocyclohexyl)-[7-[[(4S)-2-oxo-4-(trifluoromethyl)imidazolidin-1-yl]methyl]imidazo[1,2-b]pyridazin-2-yl]methyl]isoxazole-4-carboxamide], in data set [1], the bioavailability turned out to be 34%. For the same compound, the figures for the IC50 in data set [2] and in data set [3] were 15.7 ± 7 nM and 51.6 ± 23.5 nM, respectively.

As to `CCc1nocc1C(=O)N[C@H](c1cn2ncc(CN3C[C@@H](C(F)(F)F)NC3=O)cc2n1)C1CCC(F)(F)CC1` [Example 2, N—[(S)-(4,4-Difluorocyclohexyl)-[7-[[(4S)-2-oxo-4-(trifluoromethyl)imidazolidin-1-yl]methyl]imidazo[1,2-b]pyridazin-2-yl]methyl]-3-ethyl-isoxazole-4-carboxamide], in data set [1], the bioavailability was determined as 28%. Besides, the IC50 in data set [2] stood at 15.2 ± 2.5 nM; in data set [3] it was 53.3 ± 26.4 nM.

As for `Cc1nocc1C(=O)N[C@H](c1cn2ncc(CN3C[C@@H](C(F)(F)F)NC3=O)cc2n1)C1CCC(F)(F)CC1` [Example 3, N—[(S)-(4,4-Difluorocyclohexyl)-[7-[[(4S)-2-oxo-4-(trifluoromethyl)imidazolidin-1-yl]methyl]imidazo[1,2-b]pyridazin-2-yl]methyl]-3-methyl-isoxazole-4-carboxamide], the bioavailability in data set [1] amounted to 35%. Besides, the IC50 in data set [2] was 27.7 ± 2.4 nM; in data set [3], 127 nM.

As to `O=C(N[C@H](c1cn2ncc(CN3C[C@@H](C(F)(F)F)NC3=O)cc2n1)C1CCC(F)(F)CC1)c1conc1C(F)F` [Example 4, N—[(S)-(4,4-Difluorocyclohexyl)-[7-[[(4S)-2-oxo-4-(trifluoromethyl)imidazolidin-1-yl]methyl]imidazo[1,2-b]pyridazin-2-yl]methyl]-3-(difluoromethyl)isoxazole-4-carboxamide], the bioavailability in data set [1] came to 59%. Moreover, the IC50 in data set [2] is 13 ± 2 nM; in data set [3], 93.7 nM.

Turning to `CC(F)(F)c1nocc1C(=O)N[C@H](c1cn2ncc(CN3C[C@@H](C(F)(F)F)NC3=O)cc2n1)C1CCC(F)(F)CC1` [Example 5, N—[(S)-(4,4-Difluorocyclohexyl)-[7-[[(4S)-2-oxo-4-(trifluoromethyl)imidazolidin-1-yl]methyl]imidazo[1,2-b]pyridazin-2-yl]methyl]-3-(1,1-difluoroethyl)isoxazole-4-carboxamide], the bioavailability in data set [1] was 49%. Moreover, the 50% inhibitory concentration (IC50) in data set [2] worked out at 20 nM; in data set [3], 104 nM.

In the case of `Cc1nonc1C(=O)N[C@H](c1cn2ncc(CN3C[C@@H](C(F)(F)F)NC3=O)cc2n1)C1CCC(F)(F)CC1` [Example 6, N—[(S)-(4,4-Difluorocyclohexyl)-[7-[[(4S)-2-oxo-4-(trifluoromethyl)imidazolidin-1-yl]methyl]imidazo[1,2-b]pyridazin-2-yl]methyl]-4-methyl-1,2,5-oxadiazole-3-carboxamide], the bioavailability in data set [1] was 75%. Moreover, the IC50 was less than 9.45 nM in data set [2] and 94.2 nM in data set [3].

For `O=C(N[C@H](c1cn2ncc(CN3C[C@@H](C(F)(F)F)NC3=O)cc2n1)C1CCC(F)(F)CC1)c1conc1CC(F)F` [Example 8, N—[(S)-(4,4-Difluorocyclohexyl)-[7-[[(4S)-2-oxo-4-(trifluoromethyl)imidazolidin-1-yl]methyl]imidazo[1,2-b]pyridazin-2-yl]methyl]-3-(2,2-difluoroethyl)isoxazole-4-carboxamide], the results for the IC50 in data set [2] and in data set [3] were 15.5 nM and 52.4 nM, respectively.

For `O=C(N[C@H](c1cn2ncc(CN3C[C@@H](C(F)(F)F)NC3=O)cc2n1)C1CCC(F)(F)CC1)c1conc1C1CC(F)(F)C1` [Example 10, 3-(3,3-Difluorocyclobutyl)-N—[(S)-(4,4-difluorocyclohexyl)-[7-[[(4S)-2-oxo-4-(trifluoromethyl)imidazolidin-1-yl]methyl]imidazo[1,2-b]pyridazin-2-yl]methyl]isoxazole-4-carboxamide], the figures for the IC50 in data set [2] and in data set [3] were 47 nM and 48.9 nM, respectively.

Turning to `O=C(N[C@H](c1cn2ncc(CN3C[C@@H](C(F)(F)F)NC3=O)cc2n1)C1CCC(F)(F)CC1)c1conc1C1(F)CC1` [Example 12, N—[(S)-(4,4-Difluorocyclohexyl)-[7-[[(4S)-2-oxo-4-(trifluoromethyl)imidazolidin-1-yl]methyl]imidazo[1,2-b]pyridazin-2-yl]methyl]-3-(1-fluorocyclopropyl)isoxazole-4-carboxamide], the IC50 in data set [2] worked out at 18.1 nM; in data set [3], 107 nM.

Turning to `O=C(N[C@H](c1cn2ncc(CN3C[C@@H](C(F)(F)F)NC3=O)cc2n1)C1CCC(F)(F)CC1)c1conc1C(F)(F)C1CC1` [Example 13, 3-[Cyclopropyl(difluoro)methyl]-N—[(S)-(4,4-difluorocyclohexyl)-[7-[[(4S)-2-oxo-4-(trifluoromethyl)imidazolidin-1-yl]methyl]imidazo[1,2-b]pyridazin-2-yl]methyl]isoxazole-4-carboxamide], the IC50 in data set [2] is 47.1 nM; in data set [3], 53.1 nM.

As for `CC1(c2nocc2C(=O)N[C@H](c2cn3ncc(CN4C[C@@H](C(F)(F)F)NC4=O)cc3n2)C2CCC(F)(F)CC2)CC1` [Example 14, N—[(S)-(4,4-Difluorocyclohexyl)-[7-[[(4S)-2-oxo-4-(trifluoromethyl)imidazolidin-1-yl]methyl]imidazo[1,2-b]pyridazin-2-yl]methyl]-3-(1-methylcyclopropyl)isoxazole-4-carboxamide], the IC50 came out at 36.1 nM in data set [2] and 33.3 nM in data set [3].

Regarding `CC(C)(F)c1nocc1C(=O)N[C@H](c1cn2ncc(CN3C[C@@H](C(F)(F)F)NC3=O)cc2n1)C1CCC(F)(F)CC1` [Example 15, N—[(S)-(4,4-Difluorocyclohexyl)-[7-[[(4S)-2-oxo-4-(trifluoromethyl)imidazolidin-1-yl]methyl]imidazo[1,2-b]pyridazin-2-yl]methyl]-3-(1-fluoro-1-methyl-ethyl)isoxazole-4-carboxamide], the values for the IC50 in data set [2] and in data set [3] were 51.9 nM and 82.9 nM, respectively.

On to `CC(C)c1nocc1C(=O)N[C@H](c1cn2ncc(CN3C[C@@H](C(F)(F)F)NC3=O)cc2n1)C1CCC(F)(F)CC1` [Example 16, N—[(S)-(4,4-Difluorocyclohexyl)-[7-[[(4S)-2-oxo-4-(trifluoromethyl)imidazolidin-1-yl]methyl]imidazo[1,2-b]pyridazin-2-yl]methyl]-3-isopropyl-isoxazole-4-carboxamide], for which the IC50 in data set [2] came to 19.3 nM; in data set [3], 10.8 nM.

Turning to `CCc1nonc1C(=O)N[C@H](c1cn2ncc(CN3C[C@@H](C(F)(F)F)NC3=O)cc2n1)C1CCC(F)(F)CC1` [Example 17, N—[(S)-(4,4-Difluorocyclohexyl)-[7-[[(4S)-2-oxo-4-(trifluoromethyl)imidazolidin-1-yl]methyl]imidazo[1,2-b]pyridazin-2-yl]methyl]-4-ethyl-1,2,5-oxadiazole-3-carboxamide], the IC50 is less than 9.45 nM in data set [2] and 15.9 nM in data set [3].

Consider `O=C(N[C@H](c1cn2ncc(CN3C[C@@H](C(F)(F)F)NC3=O)cc2n1)C1CCC(F)(F)CC1)c1nonc1C(F)F` [Example 18, N—[(S)-(4,4-Difluorocyclohexyl)-[7-[[(4S)-2-oxo-4-(trifluoromethyl)imidazolidin-1-yl]methyl]imidazo[1,2-b]pyridazin-2-yl]methyl]-4-(difluoromethyl)-1,2,5-oxadiazole-3-carboxamide], for which the IC50 in data set [2] is less than 9.45 nM; in data set [3], 22.7 nM.

On to `O=C(N[C@H](c1cn2ncc(CN3C[C@@H](C(F)(F)F)NC3=O)cc2n1)C1CCC(F)(F)CC1)c1nonc1C1CC1` [Example 19, 4-Cyclopropyl-N—[(S)-(4,4-difluorocyclohexyl)-[7-[[(4S)-2-oxo-4-(trifluoromethyl)imidazolidin-1-yl]methyl]imidazo[1,2-b]pyridazin-2-yl]methyl]-1,2,5-oxadiazole-3-carboxamide], for which the bioavailability in data set [1] is 47%.

`COc1nonc1C(=O)N[C@H](c1cn2ncc(CN3C[C@@H](C(F)(F)F)NC3=O)cc2n1)C1CCC(F)(F)CC1` [Example 22, N—[(S)-(4,4-Difluorocyclohexyl)-[7-[[(4S)-2-oxo-4-(trifluoromethyl)imidazolidin-1-yl]methyl]imidazo[1,2-b]pyridazin-2-yl]methyl]-4-methoxy-1,2,5-oxadiazole-3-carboxamide]: the figures for the IC50 in data set [2] and in data set [3] were 11.4 nM and 83.4 nM, respectively.

In the case of `O=C(N[C@H](c1cn2ncc(CN3C[C@@H](C(F)(F)F)NC3=O)cc2n1)C1CCC(F)(F)CC1)c1nonc1CC(F)(F)F` [Example 23, N—[(S)-(4,4-difluorocyclohexyl)-[7-[[(4S)-2-oxo-4-(trifluoromethyl)imidazolidin-1-yl]methyl]imidazo[1,2-b]pyridazin-2-yl]methyl]-4-(2,2,2-trifluoroethyl)-1,2,5-oxadiazole-3-carboxamide], the IC50 in data set [2] was less than 9.45 nM; in data set [3], 14.9 nM.
